Test results taken from BigSolDB 2.1.

O=C1CN=C(c2ccccc2Cl)c2cc([N+](=O)[O-])ccc2N1
solubility (mole fraction)
Conditions | 298.2 K | 303.2 K | 308.2 K | 313.2 K | 318.2 K
in NMP | 0.0132 | 0.0142 | 0.0187 | 0.0207 | 0.0222
in ethanol | 0.000348 | 0.000409 | 0.000533 | 0.00058 | 0.000652
in propylene glycol | 0.000641 | 0.00104 | 0.00108 | 0.00116 | 0.00138
in water | 1.9e-07 | 2.4e-07 | 2.6e-07 | 2.9e-07 | 3.2e-07

Conditions | solubility (mole fraction)
in PEG-200, 298.2 K | 0.01
in PEG-200, 303.2 K | 0.01
in PEG-200, 308.2 K | 0.0134
in PEG-200, 313.2 K | 0.0168
in PEG-200, 318.2 K | 0.0239
